Data on 21 molecules can be found in patent US7528138B2, “Pyrazolo[1,5-a]pyrimidines useful as inhibitors of protein kinases” (Vertex Pharmaceuticals Incorporated, priority 2004, dated 2009).

Common to all, as to assay type: biochemical
For test [1], the target named is T1, JAK3 (Homo sapiens, UniProt P52333).
T1 sequence (P52333 1-1124): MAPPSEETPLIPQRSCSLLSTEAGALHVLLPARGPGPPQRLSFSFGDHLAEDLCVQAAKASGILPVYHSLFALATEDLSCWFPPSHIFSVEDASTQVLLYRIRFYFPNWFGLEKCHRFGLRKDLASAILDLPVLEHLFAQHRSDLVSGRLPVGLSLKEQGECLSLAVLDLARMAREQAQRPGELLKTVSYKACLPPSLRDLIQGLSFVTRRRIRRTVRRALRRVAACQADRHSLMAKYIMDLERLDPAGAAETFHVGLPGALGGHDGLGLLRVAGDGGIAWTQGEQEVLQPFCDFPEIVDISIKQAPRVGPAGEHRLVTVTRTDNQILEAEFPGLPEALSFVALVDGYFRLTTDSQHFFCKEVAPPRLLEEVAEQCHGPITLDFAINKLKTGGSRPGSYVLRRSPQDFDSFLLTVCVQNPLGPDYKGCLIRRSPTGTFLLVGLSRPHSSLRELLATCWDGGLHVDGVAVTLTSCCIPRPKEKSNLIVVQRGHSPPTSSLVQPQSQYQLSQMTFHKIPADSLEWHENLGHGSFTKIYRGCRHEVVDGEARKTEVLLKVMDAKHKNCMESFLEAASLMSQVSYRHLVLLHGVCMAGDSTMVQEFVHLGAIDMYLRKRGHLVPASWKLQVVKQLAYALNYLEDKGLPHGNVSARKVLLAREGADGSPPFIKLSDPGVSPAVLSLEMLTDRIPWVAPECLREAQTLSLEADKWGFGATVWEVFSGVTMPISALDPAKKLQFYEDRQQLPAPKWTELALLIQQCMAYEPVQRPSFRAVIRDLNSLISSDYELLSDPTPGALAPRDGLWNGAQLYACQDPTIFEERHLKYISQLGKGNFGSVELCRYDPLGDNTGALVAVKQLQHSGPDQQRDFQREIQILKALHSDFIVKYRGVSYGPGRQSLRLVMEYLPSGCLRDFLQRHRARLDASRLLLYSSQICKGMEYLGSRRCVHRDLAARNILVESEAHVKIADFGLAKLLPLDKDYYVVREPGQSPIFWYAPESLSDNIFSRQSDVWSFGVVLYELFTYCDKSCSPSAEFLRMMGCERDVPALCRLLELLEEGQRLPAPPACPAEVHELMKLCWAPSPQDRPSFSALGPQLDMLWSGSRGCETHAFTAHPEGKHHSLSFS
Briefly: JAK3 Inhibition Assay, 33P incorporation. Conditions: enzyme inhibition data (Ki), Table 11. How it is done: Reactions are carried out in a kinase buffer containing 100 mM HEPES (pH 7.4), 1 mM DTT, 10 mM MgCl2, 25 mM NaCl, and 0.01% BSA. Substrate concentrations in the assay are 5 μM ATP (200 uCi/μmole ATP) and 1 μM poly(Glu)4Tyr. Reactions are carried out at 25° C. and 1 nM JAK3. To each well of a 96 well polycarbonate plate is added 1.5 μl of a candidate JAK3 inhibitor along with 50 μl of kinase buffer containing 2 μM poly(Glu)4Tyr and 10 μM ATP. This is then mixed and 50 μl of kinase buffer containing 2 nM JAK3 enzyme is added to start the reaction. After 20 minutes at room temperature (25 C), the reaction is stopped with 50 μl of 20% trichloroacetic acid (TCA) that also contained 0.4 mM ATP. The entire contents of each well are then transferred to a 96 well glass fiber filter plate using a TomTek Cell Harvester. After washing, 60 μl of scintillation fluid is added and ^33P incorporation detected on a Perkin Elmer TopCount.

Test [2] deals with c-Met (Homo sapiens, UniProt P08581). Description: c-Met Inhibition Assay, coupled enzyme system. Conditions: enzyme inhibition data (Ki), Table 11. How it is done: Compounds are screened for their ability to inhibit c-Met kinase activity using a standard coupled enzyme system (Fox et al., Protein Sci. 1998, 7, 2249). Reactions are carried out in a solution containing 100 mM HEPES (pH 7.5), 10 mM MgCl2, 25 mM NaCl, 300 μM NADH, 1 mM DTT, and 1.5% DMSO. Final substrate concentrations in the assay are 200 μM ATP (Sigma Chemicals, St Louis, Mo.) and 10 μM polyGluTyr (Sigma Chemical Company, St. Louis). Reactions are carried out at 30° C. and 80 nM c-Met. Final concentrations of the components of the coupled enzyme system are 2.5 mM phosphoenolpyruvate, 300 μM NADH, 30 μg/ml pyruvate kinase and 10 μg/ml lactate dehydrogenase.
Sequence of c-Met (P08581 25-1390): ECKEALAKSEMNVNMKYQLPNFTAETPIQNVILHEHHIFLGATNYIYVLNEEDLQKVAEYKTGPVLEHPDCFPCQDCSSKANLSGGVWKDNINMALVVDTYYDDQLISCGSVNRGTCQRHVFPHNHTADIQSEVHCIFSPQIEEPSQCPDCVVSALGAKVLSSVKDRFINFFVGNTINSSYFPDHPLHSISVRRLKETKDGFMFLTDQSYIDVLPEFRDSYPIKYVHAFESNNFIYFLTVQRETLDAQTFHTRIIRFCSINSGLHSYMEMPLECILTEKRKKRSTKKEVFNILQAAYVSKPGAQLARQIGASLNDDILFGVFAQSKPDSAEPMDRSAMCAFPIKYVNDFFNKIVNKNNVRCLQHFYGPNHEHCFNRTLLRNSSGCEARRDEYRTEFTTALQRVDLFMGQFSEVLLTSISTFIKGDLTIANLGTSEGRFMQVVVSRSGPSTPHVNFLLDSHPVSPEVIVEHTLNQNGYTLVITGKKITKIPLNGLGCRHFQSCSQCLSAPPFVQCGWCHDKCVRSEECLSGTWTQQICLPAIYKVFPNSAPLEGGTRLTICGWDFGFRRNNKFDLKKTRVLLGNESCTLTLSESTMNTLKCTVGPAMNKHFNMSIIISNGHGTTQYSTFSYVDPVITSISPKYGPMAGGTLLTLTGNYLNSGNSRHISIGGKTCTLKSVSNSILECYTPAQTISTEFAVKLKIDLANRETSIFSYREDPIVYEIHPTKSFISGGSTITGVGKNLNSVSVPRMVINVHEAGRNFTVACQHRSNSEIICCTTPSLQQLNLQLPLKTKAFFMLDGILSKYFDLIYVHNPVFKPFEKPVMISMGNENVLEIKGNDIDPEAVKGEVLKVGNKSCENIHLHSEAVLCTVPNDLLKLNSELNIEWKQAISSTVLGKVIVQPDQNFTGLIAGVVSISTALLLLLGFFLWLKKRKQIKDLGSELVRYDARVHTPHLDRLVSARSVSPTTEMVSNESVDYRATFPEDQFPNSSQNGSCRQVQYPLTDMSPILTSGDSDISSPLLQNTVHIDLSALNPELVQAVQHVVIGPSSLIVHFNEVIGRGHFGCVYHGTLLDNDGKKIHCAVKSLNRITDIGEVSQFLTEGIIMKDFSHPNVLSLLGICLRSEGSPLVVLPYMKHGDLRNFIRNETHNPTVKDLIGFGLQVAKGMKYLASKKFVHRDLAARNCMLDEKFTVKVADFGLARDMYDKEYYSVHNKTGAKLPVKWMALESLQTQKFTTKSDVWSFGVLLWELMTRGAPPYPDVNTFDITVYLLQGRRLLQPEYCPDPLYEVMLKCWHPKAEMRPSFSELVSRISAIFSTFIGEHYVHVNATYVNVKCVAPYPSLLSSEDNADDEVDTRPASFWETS
An assay stock buffer solution is prepared containing all of the reagents listed above with the exception of ATP and a test compound of the present invention. The assay stock buffer solution (175 μl) is incubated in a 96 well plate with 5 μl of the test compound of the present invention at final concentrations spanning 0.006 μM to 12.5 μM at 30° C. for 10 minutes. Typically, a 12-point titration is conducted by preparing serial dilutions (from 10 mM compound stocks) with DMSO of the test compounds of the present invention in daughter plates. The reaction is initiated by the addition of 20 μl of ATP (final concentration 200 μM). Rates of reaction are obtained using a Molecular Devices Spectramax plate reader (Sunnyvale, Calif.) over 10 minutes at 30° C. The Ki values are determined from the rate data as a function of inhibitor concentration.

The target of test [3] is T2, Itk (Homo sapiens, UniProt Q08881).
T2 sequence (Q08881 1-620): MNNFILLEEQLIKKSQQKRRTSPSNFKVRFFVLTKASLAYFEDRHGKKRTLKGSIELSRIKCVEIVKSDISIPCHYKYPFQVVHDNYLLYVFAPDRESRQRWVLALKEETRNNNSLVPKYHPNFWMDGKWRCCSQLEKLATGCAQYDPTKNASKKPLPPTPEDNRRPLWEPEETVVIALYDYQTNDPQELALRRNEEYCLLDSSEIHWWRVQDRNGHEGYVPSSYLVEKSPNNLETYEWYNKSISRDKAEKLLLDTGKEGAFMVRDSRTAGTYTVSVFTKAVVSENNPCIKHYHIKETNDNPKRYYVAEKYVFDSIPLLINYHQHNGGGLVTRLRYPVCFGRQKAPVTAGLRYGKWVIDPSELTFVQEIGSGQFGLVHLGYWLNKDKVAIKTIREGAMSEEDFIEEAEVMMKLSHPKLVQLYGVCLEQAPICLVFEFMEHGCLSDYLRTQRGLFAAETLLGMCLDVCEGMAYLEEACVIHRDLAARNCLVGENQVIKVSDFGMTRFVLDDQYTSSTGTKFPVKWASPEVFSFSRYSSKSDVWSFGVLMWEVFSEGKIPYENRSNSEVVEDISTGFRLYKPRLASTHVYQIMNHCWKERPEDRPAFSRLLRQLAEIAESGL
Description: ITK Inhibition Assay (Radiometric), radioactive-phosphate incorporation. Conditions: enzyme inhibition data (Ki), Table 11; radiometric or UV assay not stated. As for the experimental part:
Assays are carried out in a mixture of 20 mM MOPS (pH 7.0), 10 mM MgCl2, 0.1% BSA and 1 mM DTT. Final substrate concentrations in the assay are 7.5 μM [γ-33P]ATP (400 mCi 33P ATP/mmol ATP, Amersham Pharmacia Biotech/Sigma Chemicals) and 3 μM peptide (SAM68 protein D332-443). Assays are carried out at 25° C. in the presence of 50 nM Itk. An assay stock buffer solution is prepared containing all of the reagents listed above, with the exception of ATP and the test compound of interest. 50 μL of the stock solution is placed in a 96 well plate followed by addition of 2 μL of DMSO stock containing serial dilutions of the test compound (typically starting from a final concentration of 50 μM with 2-fold serial dilutions) in duplicate (final DMSO concentration 2%). The plate is pre-incubated for 10 minutes at 25° C. and the reaction initiated by addition of 50 μL [γ-33P]ATP (final concentration 7.5 μM).
The reaction is stopped after 10 minutes by the addition of […] 0.2M phosphoric acid+0.01% TWEEN 20. A multiscreen phosphocellulose filter 96-well plate (Millipore, Cat no. MAPHN0B50) is pretreated with 100 μL 0.2M phosphoric acid +0.01% TWEEN 20 prior to the addition of […] of the stopped assay mixture. The plate is washed with 4×200 μL 0.2M phosphoric acid+0.01% TWEEN 20. After drying, 30 μL Optiphase ‘SuperMix’ liquid scintillation cocktail (Perkin Elmer) is added to the well prior to scintillation counting (1450 Microbeta Liquid Scintillation Counter, Wallac).
Ki(app) data are calculated from non-linear regression analysis of the initial rate data using the Prism software package (GraphPad Prism version 3.0cx for Macintosh, GraphPad Software, San Diego Calif., USA).

Broadly, the Ki is the dissociation constant of the complex between target and ligand, obtained from inhibition or displacement. `CN(C)c1ccc(CNC(=O)c2c(N)nn3cc(-c4ccncn4)cnc23)cc1` [Compound V-43]: the Ki is greater than 5 µM in test [1], 500 to 5000 nM in test [2] and 500 to 5000 nM in test [3].
With `Nc1nn2cc(-c3ccncn3)cnc2c1C(=O)N1CCC(O)C1` (stereo not drawn) [Compound V-44], the Ki in test [1] is greater than 5 µM; in test [2], 500 to 5000 nM; in test [3] it was 500 to 5000 nM.
In the case of `Nc1nn2cc(-c3ccncn3)cnc2c1C(=O)N1CCCC1` [Compound V-45], the results for the inhibitory constant (Ki) in test [1], in test [2] and in test [3] were greater than 5 µM, 500 to 5000 nM and 500 to 5000 nM, respectively.
Take `Nc1nn2cc(-c3ccncn3)cnc2c1C(=O)N[C@H](CO)c1ccccc1` [Compound V-46]: the results for the inhibition constant Ki in test [1], in test [2] and in test [3] were greater than 5 µM, 500 to 5000 nM and 500 to 5000 nM, respectively.
Consider `Nc1nn2cc(-c3ccccn3)cnc2c1C(=O)NCc1ccc(Cl)c(Cl)c1` [Compound V-47], for which the Ki is greater than 5 µM in test [1], 500 to 5000 nM in test [2] and 500 to 5000 nM in test [3].
Turning to `CCOC(=O)c1c(N)nn2cc(CCCOC(C)=O)cnc12` [Compound V-48], the results for the Ki in test [1], in test [2] and in test [3] were greater than 5 µM, 500 to 5000 nM and 500 to 5000 nM, respectively.
In the case of `CC(C)(C)OCc1ccccc1-c1cnc2c(-c3ccccn3)c(N)nn2c1` [Compound V-49], the inhibitory constant (Ki) in test [1] is greater than 5 µM; in test [2], 500 to 5000 nM; in test [3], 500 to 5000 nM.
With `COc1ccc(-c2cnc3c(-c4ccccn4)c(N)nn3c2)cn1` [Compound V-50], the Ki in test [1] is greater than 5 µM; in test [2], less than 500 nM; in test [3], 500 to 5000 nM.
For `Nc1nn2cc(-c3cncnc3)cnc2c1-c1ccccn1` [Compound V-52] the same measures were greater than 5 µM, 500 to 5000 nM and 500 to 5000 nM.
The like results for `Cc1n[nH]c(C)c1-c1cnc2c(-c3ccccn3)c(N)nn2c1` [Compound V-53] were, in that order, greater than 5 µM, less than 500 nM and 500 to 5000 nM.
The like results for `Nc1nn2cc(-c3ccccc3OCc3ccccc3)cnc2c1-c1ccccn1` [Compound V-56] were, in that order, greater than 5 µM, 500 to 5000 nM and 500 to 5000 nM.
Regarding `Nc1nn2cc(N3CCCC3)cnc2c1-c1ccccn1` [Compound V-58], the results for the Ki in test [1], in test [2] and in test [3] were greater than 5 µM, less than 500 nM and 500 to 5000 nM, respectively.
For `Nc1nn2cc(N3CCCCC3)cnc2c1-c1ccccn1` [Compound V-59] the same measures were greater than 5 µM, 500 to 5000 nM and 500 to 5000 nM.
For `CN(CCc1ccccn1)C(=O)c1ccc(-c2cnc3c(-c4ccccn4)c(N)nn3c2)nc1` [Compound V-60], the Ki in test [1] is 0.5 to 5 µM; in test [2], less than 500 nM; in test [3], 500 to 5000 nM.
Turning to `CN1CCC(N(C)C(=O)c2ccc(-c3cnc4c(-c5ccccn5)c(N)nn4c3)nc2)CC1` [Compound V-61], the results for the Ki in test [1], in test [2] and in test [3] were 0.5 to 5 µM, less than 500 nM and less than 500 nM, respectively.
`COC(=O)C1CCCN1C(=O)c1ccc(-c2cnc3c(-c4ccccn4)c(N)nn3c2)nc1` (stereo not drawn) [Compound V-66]: the Ki in test [1] is 0.5 to 5 µM; in test [2], less than 500 nM; in test [3], 500 to 5000 nM.
Consider `Nc1nn2cc(-c3ccc(C(=O)N4CCC(N)CC4)cn3)cnc2c1-c1ccccn1` [Compound V-69], for which the Ki in test [1] is 0.5 to 5 µM; in test [2] it was less than 500 nM; in test [3], less than 500 nM.
Consider `CCCCNC(=O)c1ccc(-c2cnc3c(-c4ccccn4)c(N)nn3c2)nc1` [Compound V-77], for which the inhibitory constant (Ki) is greater than 5 µM in test [1], 500 to 5000 nM in test [2] and 500 to 5000 nM in test [3].
For `CCCCN(CCN)C(=O)c1ccc(-c2cnc3c(-c4ccccn4)c(N)nn3c2)nc1` [Compound V-80], the Ki in test [1] was greater than 5 µM; in test [2], less than 500 nM; in test [3], less than 500 nM.
As for `Nc1nn2cc(-c3ccc(C(=O)N4CCC(N5CCCC5)CC4)cn3)cnc2c1-c1ccccn1` [Compound V-84], the inhibitory constant (Ki) in test [1] is 0.5 to 5 µM; in test [2], less than 500 nM; in test [3] it was less than 500 nM.
Consider `CCN(CC)CCN(C)C(=O)c1ccc(-c2cnc3c(-c4ccccn4)c(N)nn3c2)nc1` [Compound V-88], for which the results for the inhibitory constant (Ki) in test [1], in test [2] and in test [3] were 0.5 to 5 µM, less than 500 nM and less than 500 nM, respectively.
